Source: patent US11141422B2, “Methods for treating pulmonary hypertension” (Chiesi Farmaceutici S.p.A., priority 2011, dated 2021)
“Also recorded” adds a separate entry of the source.

Legend:
[1] = system: anaesthetized, mechanically ventilated pigs in normoxia; assay: Response to ADP infusion during normoxia: haemodynamic measurements in pigs (Protocol 3); assay type: in vivo
Description: (§1) Haemodynamic measurements were performed in six anaesthetized, mechanically ventilated pigs (30.2±0.7 kg) in normoxia (FiO2˜0.21) and hypoxia (FiO2˜0.10) prior to and during right atrial cangrelor infusion at a loading dose of 30 μg/kg/min for 10 min, and then a continuous infusion at 4 μg/kg/min for 80 min. Another six pigs (29.3±0.5 kg) were investigated in normoxia before and during right atrial infusion of ADP at 70 μg/kg/min for ˜7 min; as well as before and during simultaneous ADP and cangrelor infusion for ˜7 min at doses of 70 μg/kg/min and 4 μg/kg/min, respectively, after a cangrelor loading dose of 30 μg/kg/min for 10 min. All data are mean±SEM.
Protocol 3—Response to ADP During Normoxia.
ADP infusion during normoxia increased MPAP, temporarily to peak at 35.2±1.9 mmHg, 19.3±1.6 mmHg higher (p<0.001) than baseline, to then stabilize at a level 10.4±1.6 mmHg higher (p<0.001) than baseline, and 8.9±1.4 mmHg lower (p<0.001) than the peak, after ˜4-7 min. Also, after ˜4-7 min from initiation of ADP infusion, PVR had increased (p<0.002) by 2.8±0.4 WU and PCWP by 2.5±0.7 mmHg (p<0.019), compared to baseline. ADP infusion during normoxia decreased MAP, first to reach a nadir at 39.8±6.1 mmHg, 48.5±6.0 mmHg lower (p<0.001) than baseline, however, then stabilizing, after ˜4-7 min, at a level not different (p=ns) from, although slightly lower than, baseline, and 41.7±8.9 mmHg higher (p<0.001) than the nadir. MRAP, SVR, CO, HR, SV and blood-O2-consumption were unchanged (p=ns) by ADP infusion during normoxia.

[2] = system: anaesthetized, mechanically ventilated pigs in hypoxia (hypoxic pulmonary vasoconstriction); assay: Response to cangrelor during hypoxia: haemodynamic measurements in pigs (Protocol 2); assay type: in vivo; conditions: for MPAP decrease compared to hypoxia baseline: hypoxia (FiO2˜0.10), mean±SEM
Description: as §1
Protocol 2—Response to Cangrelor During Hypoxia.
Compared to hypoxia baseline, MPAP decreased transiently by 3.3±0.4 (p<0.036) and 3.6±0.6 mmHg (p<0.018), respectively, 10 and 30 min after initiation of cangrelor infusion; but returned to levels not different (p=ns) from baseline 60 and 90 min after initiation of cangrelor infusion. PVR, MRAP, PCWP, MAP, SVR, CO, HR, SV and blood-O2-consumption were unaltered by cangrelor infusion during hypoxia (p=ns).

[3] = system: anaesthetized, mechanically ventilated pigs in normoxia (ADP-induced pulmonary vasoconstriction); assay: Response to simultaneous ADP and cangrelor infusion during normoxia: haemodynamic measurements in pigs (Protocol 4); assay type: in vivo
Description: as §1
Protocol 4—Response to Simultaneous ADP and Cangrelor Infusion.
(§2) The ˜4-7 min MAP measurement after simultaneous ADP and cangrelor infusion was, however, not different (p=ns) from the measurement with ADP infusion alone. Also, SVR decreased (p<0.024) by 3.2±1.2 WU, as compared to baseline, in response to simultaneous ADP and cangrelor infusion. […] Furthermore, the ˜4-7 min PVR and PCWP measurements after simultaneous ADP and cangrelor infusion were lower (p<0.005 and p<0.022, respectively) than the measurements with ADP infusion alone. Also, the ˜4-7 min SV measurement after simultaneous ADP and cangrelor infusion was higher (p<0.02) than the measurement with ADP infusion alone.

[4] = system: anaesthetized, mechanically ventilated pigs in normoxia; assay: Cangrelor infusion alone during normoxia: haemodynamic measurements in pigs; assay type: in vivo; conditions: p=ns
Description: as §1, §2

[5] = cited from earlier work
[6] = system: dog thrombosis model; conditions: compared with placebo; animals receiving tissue-type plasminogen activator and heparin after thrombus formation; cited from earlier work
[7] = ˜4-7 min from initiation of ADP infusion
[8] = during hypoxia, p=ns, listed as Cangrelor
[9] = simultaneous ADP and cangrelor infusion, normoxia
[10] = simultaneous ADP and cangrelor infusion, after ˜4-7 min
[11] = simultaneous ADP and cangrelor infusion, p=ns

## Nc1ncnc2c1ncn2[C@@H]1O[C@H](COP(=O)(O)OP(=O)(O)O)[C@@H](O)[C@H]1O [ADP, adenosine diphosphate]
[1]; ADP infusion
  MAP nadir: 39.8±6.1 mmHg
  MAP nadir, lower than baseline: 48.5±6.0 mmHg
[1]; ADP infusion 70 μg/kg/min
  MPAP peak, higher than baseline: 19.3±1.6 mmHg
[1]; ADP infusion 70 μg/kg/min, mean±SEM
  MPAP peak: 35.2±1.9 mmHg
[1]; ADP infusion, after ˜4-7 min
  MAP stabilized level, higher than the nadir: 41.7±8.9 mmHg
  MPAP stabilized level, higher than baseline: 10.4±1.6 mmHg
  MPAP stabilized level, lower than the peak: 8.9±1.4 mmHg
[1]; ADP infusion, after ˜4-7 min, p=ns
  MAP stabilized level compared to baseline: not different
[1]; p=ns
  CO change by ADP infusion: unchanged; also recorded: tended to decrease
  HR change by ADP infusion: unchanged
  MRAP change by ADP infusion: unchanged; also recorded: tended to increase
  SV change by ADP infusion: unchanged; also recorded: tended to decrease
  SVR change by ADP infusion: unchanged
  blood-O2-consumption change by ADP infusion: unchanged; also recorded: tended to decrease
[1]; [7]
  PCWP increase compared to baseline: 2.5±0.7 mmHg
  PVR increase compared to baseline: 2.8±0.4 WU

## CSCCNc1nc(SCCC(F)(F)F)nc2c1ncn2[C@@H]1O[C@H](COP(=O)(O)OP(=O)(O)C(Cl)(Cl)P(=O)(O)O)[C@@H](O)[C@H]1O [cangrelor]
[2]; during hypoxia, p=ns
  CO change by cangrelor infusion: unaltered
  HR change by cangrelor infusion: unaltered
  MAP change by cangrelor infusion: unaltered
  MRAP change by cangrelor infusion: unaltered
  PCWP change by cangrelor infusion: unaltered
  PVR change by cangrelor infusion: unaltered
  SV change by cangrelor infusion: unaltered
  SVR change by cangrelor infusion: unaltered
  blood-O2-consumption change by cangrelor infusion: unaltered
[2]; [8]
  MAP change by cangrelor infusion: without affecting
  SVR change by cangrelor infusion: without affecting
  blood-O2-consumption change by cangrelor infusion: without affecting
[2]; 10 min after initiation of cangrelor infusion (30 μg/kg/min for 10 min, then 4 μg/kg/min)
  MPAP decrease compared to hypoxia baseline: 3.3±0.4 mmHg
[2]; 30 min after initiation of cangrelor infusion
  MPAP decrease compared to hypoxia baseline: 3.6±0.6 mmHg
[2]; hypoxia, 60 and 90 min after initiation of cangrelor infusion, p=ns
  MPAP compared to hypoxia baseline: not different
[2]; hypoxia, 10 min after cangrelor infusion was initiated
  MPAP decrease (attenuation of acute HPV): ~12%
[2]; hypoxia, 30 min after cangrelor infusion was initiated
  MPAP decrease (attenuation of acute HPV): ~14%
[3]; normoxia
  attenuation of the MPAP peak induced by ADP infusion: 34%
  sustained MPAP increase induced by ADP infusion: totally prevented
  sustained PVR increase induced by ADP infusion: totally prevented
[3]; normoxia, simultaneous ADP 70 μg/kg/min and cangrelor 4 μg/kg/min after cangrelor loading dose 30 μg/kg/min for 10 min
  MPAP transient increase compared to baseline (peak): 7.3±1.8 mmHg
[3]; normoxia, simultaneous ADP and cangrelor infusion
  MPAP peak as share of the peak ADP response without cangrelor: ~66%
[3]; simultaneous ADP and cangrelor infusion
  SVR decrease compared to baseline: 3.2±1.2 WU
[3]; [9]
  MAP nadir: 64.9±3.4 mmHg
  MAP transient decrease compared to baseline: 19.4±3.1 mmHg
[3]; [10]
  MAP stabilized level, higher than the nadir: 12.9±2.2 mmHg
  MAP stabilized level, lower than baseline: 6.5±1.2 mmHg
  MPAP level, lower than the peak: 7.4±1.5 mmHg
[3]; simultaneous ADP and cangrelor infusion, after ˜4-7 min, p=ns
  MPAP compared to baseline: not different
[3]; simultaneous ADP and cangrelor infusion, p<0.002
  ˜4-7 min MPAP measurement compared to ADP infusion alone: significantly lower
[3]; simultaneous ADP and cangrelor infusion, p<0.005
  ˜4-7 min PVR measurement compared to ADP infusion alone: lower
[3]; simultaneous ADP and cangrelor infusion, p<0.02
  ˜4-7 min SV measurement compared to ADP infusion alone: higher
[3]; simultaneous ADP and cangrelor infusion, p<0.022
  ˜4-7 min PCWP measurement compared to ADP infusion alone: lower
[3]; simultaneous ADP and cangrelor infusion, p<0.027
  MAP nadir compared to the nadir response to ADP alone: significantly higher
[3]; [11]
  CO change compared to baseline: unchanged
  HR change compared to baseline: unchanged
  MRAP change compared to baseline: unchanged
  PCWP change compared to baseline: unchanged
  PVR change compared to baseline: unchanged
  SV change compared to baseline: unchanged
  blood-O2-consumption change compared to baseline: unchanged; also recorded: tended to decrease
  ˜4-7 min CO measurement compared to ADP infusion alone: neither any differences
  ˜4-7 min HR measurement compared to ADP infusion alone: neither any differences
  ˜4-7 min MAP measurement compared to ADP infusion alone: not different
  ˜4-7 min SVR measurement compared to ADP infusion alone: did not differ
[3]; with cangrelor
  MAP decrease to ADP: attenuated
  PCWP increase with ADP infusion alone: attenuated
  trend for a SV decrease with ADP infusion alone: attenuated
[4]
  any of the haemodynamic variables: did not alter
[5]; bolus 30 μg/kg and infusion 4 μg/kg/min
  time to steady state concentrations in plasma from start of infusion: ≤ 30 min
[5]; plasma
  half-life (clearance from plasma): 3 to 6 min
[6]
  cyclic flow variation: decreased
  myocardial flow: improved
  reocclusion: decreased

## CCCSc1nc(N[C@@H]2C[C@H]2c2ccc(F)c(F)c2)c2nnn([C@@H]3C[C@H](OCCO)[C@@H](O)[C@H]3O)c2n1 [ticagrelor]
[6]
  cyclic flow variation: decreased
  myocardial flow: improved
  reocclusion: decreased
